“And” between values parts separate entries of the source, which are not always exact repeats. Equal entries are not always repeated. Where two headings read alike, the source gives them in different places. Each block holds one molecule with its values, some of them ahead of it.
Assays:
[1] = Pharmacokinetic measurements in T2DM rats (plasma concentrations by UPLC-MS/MS, two-compartment PK model); type: in vivo; settings: for C5ohsax, observed plasma concentration: individual rats
Protocol: . Plasma was obtained by centrifugation at 3000 r/min and stored at −80 °C until analysis.
Plasma concentrations of analytes were determined using the UPLC-MS/MS method above. […].

[2] = Plasma glucose concentration in T2DM rats (glucose oxidase method); type: in vivo
Protocol: Glucose concentration in the plasma was determined by Glucose test kit (glucose oxidase method, Rongsheng biological Pharmaceutical Co.,Ltd, Shanghai, China). All the procedures were conducted according to manufacturers’ instructions. All test specimens (plasma samples, blank and calibration samples) were done in flat bottom 96 well microplates; 2.5 µL serum or calibration, 250 µL solution were pipetted into each well of the microplate, and the blank control contain water. The results were tested at 37 °C for 10 min and an absorbance value of 505 nm in a continuous monitoring micro plate reader. Glucose concentration (mmol/L) = (sample tube absorbent/calibration tube absorbent) × calibration fluid concentration (5.55 mmol/L). All experiments were repeated two duplicates.

[3] = Plasma insulin concentration in T2DM rats (Rat INS ELISA Kit); type: in vivo
Protocol: Insulin concentration in the plasma was determined by Rat INS ELISA Kit (Zeye Biotechnology Co., Ltd., Shanghai, China). All the procedures were conducted according to manufacturers’ instructions. Test specimens (plasma samples, blank and calibration samples) were added to an antibody-coated 96-well plate followed by addition of biological agent and enzyme conjugate solution, these mixtures incubated 30 min at 37 °C. The plate was then washed after incubation and a mixture of chromogenic reagent A and B was added. Optical density values at 450 nm were measured after terminating the reaction, and insulin concentrations were calculated according to the standard curve within a range of 0–20 mU/L (0, 1.25, 2.5, 5, 10, 20 mU/L).

[4] = Stability of analytes in QC rat plasma (UPLC-MS/MS); type: physicochemical; settings: for Stability, autosampler at 4 °C for up to 16 h (% of nominal): extracted plasma samples; for Stability, autosampler at 4 °C for up to 16 h (% of nominal) / Stability, 4 °C for 12 h (% of nominal) / Stability, freeze-thaw three cycles (% of nominal) / Stability, room temperature for 4 h (% of nominal) / Stability, −80 °C for 7 days (% of nominal): n = 3; for Stability, 4 °C for 12 h (% of nominal) / Stability, freeze-thaw three cycles (% of nominal) / Stability, room temperature for 4 h (% of nominal) / Stability, −80 °C for 7 days (% of nominal): rat plasma; for stability in plasma under storage conditions: room temperature (25 °C) 4 h, 4 °C 12 h, −80 °C 7 days, three freeze-thaw cycles, autosampler 4 °C up to 16 h
Protocol: The stability of analytes in QC plasma was evaluated by analyzing replicates (n = 3) of LQC, MQC, HQC samples placed on storage for 4 h at room temperature (25 °C), for 12 h at 4 °C, for 7 days at −80 °C, and after three freeze-thaw cycles from −80 °C to room temperature. […]

[5] = cited from earlier work
[6] = T2DM rats, i.v. 0.5 mg/kg 5-OH SAX, Subject1, Subject2, Subject3, 0.5 mg/kg
[7] = T2DM rats, i.v. 0.5 mg/kg 5-OH SAX, two-compartment model, mean (n = 3)
[8] = high QC: spiked 2000 ng/mL SAX, 400 ng/mL 5-OH SAX
[9] = low QC: spiked 15 ng/mL SAX, 3 ng/mL 5-OH SAX
[10] = T2DM rats, i.g. 10 mg/kg SAX, two-compartment model with first order absorption, mean (n = 3)
[11] = i.g. 10 mg/kg SAX vs 0.5% CMC-Na

SMILES: N#C[C@@H]1C[C@@H]2C[C@@H]2N1C(=O)[C@@H](N)C12CC3CC(O)(CC(O)(C3)C1)C2 [5-OH SAX, 5-hydroxy Saxagliptin]
AUC, individual rats [1, 6]: 691.49 ng·h/mL and 452.17 ng·h/mL and 611.48 ng·h/mL | Cl2, individual rats [1, 6]: 8.2463 mL/min/kg and 8.554 mL/min/kg and 6.7797 mL/min/kg | Cl, individual rats [1, 6]: 12.051 mL/min/kg and 18.4298 mL/min/kg and 13.628 mL/min/kg | K12, individual rats [1, 6]: 4.85 h⁻¹ and 2.93 h⁻¹ and 2.76 h⁻¹ | K21, individual rats [1, 6]: 3.41 h⁻¹ and 3.53 h⁻¹ and 3.31 h⁻¹ | V2, individual rats [1, 6]: 0.14522 L/kg and 0.14545 L/kg and 0.12277 L/kg | V, individual rats [1, 6]: 0.10199 L/kg and 0.17509 L/kg and 0.14739 L/kg | t1/2a, individual rats [1, 6]: 3 min and 3.6 min and 4.2 min | t1/2β, individual rats [1, 6]: 23.4 min and 19.8 min and 22.2 min | C5ohsax, observed plasma concentration ([1]; T2DM rats, i.v. 0.5 mg/kg 5-OH SAX, nominal time 0.08 h, 0.5 mg/kg): 1610.00 ng/mL and 1240.00 ng/mL | C5ohsax, observed plasma concentration ([1]; T2DM rats, i.v. 0.5 mg/kg 5-OH SAX, nominal time 0.17 h, 0.5 mg/kg): 972.00 ng/mL and 684.00 ng/mL and 900.00 ng/mL | C5ohsax, observed plasma concentration ([1]; T2DM rats, i.v. 0.5 mg/kg 5-OH SAX, nominal time 0.25 h, 0.5 mg/kg): 595.00 ng/mL and 387.00 ng/mL and 550.00 ng/mL | C5ohsax, observed plasma concentration ([1]; T2DM rats, i.v. 0.5 mg/kg 5-OH SAX, nominal time 0.50 h, 0.5 mg/kg): 295.00 ng/mL and 192.00 ng/mL and 235.00 ng/mL | C5ohsax, observed plasma concentration ([1]; T2DM rats, i.v. 0.5 mg/kg 5-OH SAX, nominal time 0.75 h, 0.5 mg/kg): 150.00 ng/mL and 91.70 ng/mL and 149.00 ng/mL | C5ohsax, observed plasma concentration ([1]; T2DM rats, i.v. 0.5 mg/kg 5-OH SAX, nominal time 2.00 h, 0.5 mg/kg): 20.60 ng/mL and 8.16 ng/mL and 11.60 ng/mL | AUC [1, 7]: 585.04 ng·h/mL | CL2 (clearance rate of peripheral compartment) [1, 7]: 7.86 mL/min/kg | CL (clearance rate of central compartment) [1, 7]: 14.703 mL/min/kg | Cmax [1, 7]: 3716.88 ng/mL | K12 [1, 7]: 3.51 h⁻¹ | K21 [1, 7]: 3.42 h⁻¹ | V2 (apparent distribution volume of peripheral compartment) [1, 7]: 0.13781 L/kg | V (apparent distribution volume of central compartment) [1, 7]: 0.14149 L/kg | t1/2a (distribution phase half-life) [1, 7]: 3.6 min | t1/2β (elimination half-life) [1, 7]: 21.6 min | blood glucose compared to the control group ([2]; tail vein 0.5 mg/kg 5-OH SAX vs saline, 0.08, 0.17, 0.25 and 0.5 h (P<0.05)): significant differences | insulin compared to the control group ([3]; tail vein 0.5 mg/kg 5-OH SAX vs saline, within the sampling range): no significant differences | Stability, autosampler at 4 °C for up to 16 h (% of nominal) [4, 8]: 101.22 ± 2.47% | Stability, autosampler at 4 °C for up to 16 h (% of nominal) [4, 9]: 100.44 ± 3.10% | Stability, 4 °C for 12 h (% of nominal) [4, 8]: 99.32 ± 2.66% | Stability, freeze-thaw three cycles (% of nominal) [4, 8]: 95.79 ± 2.16% | Stability, room temperature for 4 h (% of nominal) [4, 8]: 98.51 ± 2.19% | Stability, −80 °C for 7 days (% of nominal) [4, 8]: 97.49 ± 2.52% | Stability, 4 °C for 12 h (% of nominal) [4, 9]: 100.67 ± 2.52% | Stability, freeze-thaw three cycles (% of nominal) [4, 9]: 94.89 ± 2.91% | Stability, room temperature for 4 h (% of nominal) [4, 9]: 99.78 ± 2.22% | Stability, −80 °C for 7 days (% of nominal) [4, 9]: 95.11 ± 4.55% | stability in plasma under storage conditions [4]: remained stable | systemic exposure in plasma relative to the parent drug SAX ([5]; after SAX): about 3 times

CL2 (clearance rate of peripheral compartment) [1, 10]: 284.8403 mL/min/kg | CL (clearance rate of central compartment) [1, 10]: 54.0967 mL/min/kg | K12 [1, 10]: 6.62 h⁻¹ | K21 [1, 10]: 1.07 h⁻¹ | V2 (apparent distribution volume of peripheral compartment) [1, 10]: 18.3933 L/kg | V (apparent distribution volume of central compartment) [1, 10]: 2.30724 L/kg | Tmax ([1]; rat, plasma, po, 10 mg/kg): 6.6 min | half-life ([1]; rat, plasma, po, 10 mg/kg, T2DM rats, i.g. 10 mg/kg SAX, two-compartment model with first order absorption, mean (n = 3), read-out: t1/2Ka (absorption phase half-life) (converted)): 4.2 min | half-life ([1]; rat, plasma, po, 10 mg/kg, T2DM rats, i.g. 10 mg/kg SAX, two-compartment model with first order absorption, mean (n = 3), read-out: t1/2a (distribution phase half-life) (converted)): 4.8 min | half-life ([1]; rat, plasma, po, 10 mg/kg, T2DM rats, i.g. 10 mg/kg SAX, two-compartment model with first order absorption, mean (n = 3), read-out: t1/2β (elimination half-life) (converted)): 368 min | AUC ([1]; rat, plasma, po, 10 mg/kg, read-out: AUC): 3280 ng·h/mL | Cmax ([1]; rat, plasma, po, 10 mg/kg, read-out: Cmax): 2200 ng/mL | Stability, autosampler at 4 °C for up to 16 h (% of nominal) [4, 8]: 98.05 ± 2.04% | Stability, autosampler at 4 °C for up to 16 h (% of nominal) [4, 9]: 99.02 ± 2.00% | Stability, 4 °C for 12 h (% of nominal) [4, 8]: 99.09 ± 2.02% | Stability, freeze-thaw three cycles (% of nominal) [4, 8]: 95.84 ± 1.52% | Stability, room temperature for 4 h (% of nominal) [4, 8]: 99.59 ± 3.47% | Stability, −80 °C for 7 days (% of nominal) [4, 8]: 98.07 ± 2.07% | Stability, 4 °C for 12 h (% of nominal) [4, 9]: 100.60 ± 2.29% | Stability, freeze-thaw three cycles (% of nominal) [4, 9]: 96.71 ± 1.93% | Stability, room temperature for 4 h (% of nominal) [4, 9]: 99.02 ± 2.02% | Stability, −80 °C for 7 days (% of nominal) [4, 9]: 98.56 ± 2.14% | stability in plasma under storage conditions [4]: remained stable
SMILES: N#C[C@@H]1C[C@@H]2C[C@@H]2N1C(=O)[C@@H](N)C12CC3CC(CC(O)(C3)C1)C2 [SAX, Saxagliptin]
blood glucose compared to the control group [2, 11]: no significant differences | insulin compared to the control group [3, 11]: no significant differences | share of the dose metabolized in the liver by CYP3A4/5 to 5-OH SAX [5]: about 50% | bioavailability ([5]; oral 5 mg SAX): 75%
